Where a name gives a salt, the structure may show the parent alone.
Assays:
SH-SY5Y cells = experiment: Cancer cell growth inhibition evaluation (MTT assay); assay type: cell-based; conditions: Homo sapiens, read-out: GI50 (μM) SH-SY5Y
Procedure: (§1) Evaluation was performed by measuring the inhibitory activities of a compound against the growth of a human cervical cancer-derived cell line, HeLa cells, and a human neuroblastoma cell line, SH-SY5Y cells. Details thereof are shown below. […] This assay involves, as a principle thereof, measuring an absorbance at the time of color development through a reaction of NADH, which is contained in the mitochondria of viable cells, and MTT to measure the amount of NADH. The assay was performed by the following procedure. […] After the culture, a compound was added. Then, the cells were cultured for an additional 48 hours, and then 5 mg/ml MTT liquid was added at 10 μl per well. The cells were cultured for an additional 3 hours in a CO2 incubator. A solubilization solution (0.04 mol/l hydrochloric acid-isopropanol) was added at 100 μl per well and the mixture was vigorously vortexed. After that, an absorbance at 560 nm was measured with Fusion-aFP (manufactured by PerkinElmer) and the amount of viable cells was determined.

HeLa cells = experiment: as above; assay type: cell-based; conditions: Homo sapiens, 48 h, read-out: GI50 (μM) HeLa
Procedure: as §1

[1] = tested on: murine leukemia cell lines; experiment: Leukemia cell growth inhibition evaluation, summary in words; assay type: cell-based; conditions: Table 6
Source text: (§2) HL60, THP-1, K562, U937, KGla, HEL, and MDS-L were used as human leukemia cells. The cell lines are cell lines established from various subtypes such as acute myeloid leukemia, acute promyelocytic leukemia, acute monocytic leukemia, acute erythroid leukemia, and myelodysplastic syndromes, which progress to leukemia. Cells obtained by introducing leukemia fusion genes MLL/AF9, MLL/SEPT6, and MLL/ENL into the bone marrow of normal mice with a retrovirus so as to develop leukemia were used as murine leukemia cell lines.
(§3) This assay method involves, as a principle thereof, measuring an absorbance (a peak at from 450 nm to 490 nm) at the time of color development through a reaction of NADH, which is contained in the mitochondria of viable cells, and WST-8 to measure the amount of NADH. Specifically, the assay was performed by the following procedure.
(§4) The cells were plated at 50 μl, i.e., 5,000 cells per well in a 96-well microtiter plate. Next, a test compound dissolved in DMSO was mixed at various concentrations into the same medium, and 50 μl of each of the mixtures was added to each well. A medium was prepared so that the final concentration of the test compound was from 0 μM to 50 μM and so that the addition amount of DMSO was the same, and the cells were cultured in a CO2 incubator. On day 0 before the addition and on day 1, day 2, and day 3 after the addition, WST-8 reagent was added at 20 μl per well, and the cells were cultured for 1 hour in a CO2 incubator. After that, measurement was performed with ARVO X3 (manufactured by PerkinElmer).
(§5) Specifically, an absorbance at 450 nm was measured, an absorbance at 595 nm was measured in the same well, and the absorbance at 595 nm was subtracted from the absorbance at 450 nm to perform background correction for the well itself. Further, a well containing only a medium free of cells was subjected to the same measurement. A value in this case was also subtracted. Thus, the amount of viable cells was represented as a numerical value with correction of the influence of a medicament or a medium as well. Under a condition not containing the test compound (addition of only dimethyl sulfoxide), an exponential increase in number of viable cells on day 1, day 2, and day 3 in the stated order was confirmed.

[2] = tested on: human leukemia cell lines; experiment: as above; assay type: cell-based; conditions: Table 5
Source text: as §2, §3, §4, §5

[3] = molecular target: T1, monoamine oxidase B (MAO-B) (Homo sapiens, UniProt P27338); experiment: Monoamine oxidase inhibition test (MAO-Glo assay kit); assay type: biochemical; conditions: room temperature, 1 hour
T1 construct: purchased Sigma-Aldrich
T1 sequence (P27338 1-520): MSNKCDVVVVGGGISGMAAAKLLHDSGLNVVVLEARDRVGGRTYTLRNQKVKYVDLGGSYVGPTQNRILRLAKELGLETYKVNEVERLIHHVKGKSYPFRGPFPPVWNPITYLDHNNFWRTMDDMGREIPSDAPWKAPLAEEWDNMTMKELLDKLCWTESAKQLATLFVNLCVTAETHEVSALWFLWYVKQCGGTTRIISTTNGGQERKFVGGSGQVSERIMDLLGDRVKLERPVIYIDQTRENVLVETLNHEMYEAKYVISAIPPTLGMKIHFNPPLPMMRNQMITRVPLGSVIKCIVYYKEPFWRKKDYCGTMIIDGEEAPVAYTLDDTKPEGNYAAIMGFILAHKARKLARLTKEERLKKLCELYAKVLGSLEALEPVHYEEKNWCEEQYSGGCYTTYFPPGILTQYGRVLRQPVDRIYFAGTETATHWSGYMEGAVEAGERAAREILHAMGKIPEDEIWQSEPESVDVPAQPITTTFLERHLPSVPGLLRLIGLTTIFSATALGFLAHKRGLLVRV
Procedure: (§6) To the reaction liquid was added 50 μL of a luciferin detection reagent, and the mixture was subjected to a reaction at room temperature for 20 minutes.

[4] = molecular target: T2, monoamine oxidase A (MAO-A) (Homo sapiens, UniProt P21397); experiment: as above; assay type: biochemical; conditions: room temperature, 1 hour
T2 construct: purchased Sigma-Aldrich
T2 sequence (P21397 1-527): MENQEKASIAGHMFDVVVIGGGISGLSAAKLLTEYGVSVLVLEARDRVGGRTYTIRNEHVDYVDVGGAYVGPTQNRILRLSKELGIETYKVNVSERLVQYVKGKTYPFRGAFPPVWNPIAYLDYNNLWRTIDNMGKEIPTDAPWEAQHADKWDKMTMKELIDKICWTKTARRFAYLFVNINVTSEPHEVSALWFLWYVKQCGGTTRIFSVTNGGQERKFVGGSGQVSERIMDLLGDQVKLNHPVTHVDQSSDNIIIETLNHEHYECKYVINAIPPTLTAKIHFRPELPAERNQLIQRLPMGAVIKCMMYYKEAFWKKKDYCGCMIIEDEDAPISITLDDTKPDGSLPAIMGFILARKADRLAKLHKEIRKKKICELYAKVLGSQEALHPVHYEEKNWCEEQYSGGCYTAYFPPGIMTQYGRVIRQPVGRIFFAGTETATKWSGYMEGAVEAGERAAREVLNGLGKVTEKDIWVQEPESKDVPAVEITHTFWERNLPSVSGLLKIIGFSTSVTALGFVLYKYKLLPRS
Procedure: as §6

KG1a = experiment: Leukemia cell growth inhibition evaluation (WST-8); assay type: cell-based; conditions: Homo sapiens, KG-1a; day 3 (72-hour culture); read-out: Human leukemia cell line GI50 (μM) KG1a
Source text: as §2, §3, §4, §5

HL60 = experiment: Leukemia cell growth inhibition evaluation (WST-8); assay type: cell-based; conditions: Homo sapiens, HL-60; day 3 (72-hour culture); read-out: Human leukemia cell line GI50 (μM) HL60
Source text: as §2, §3, §4, §5

K562 = experiment: Leukemia cell growth inhibition evaluation (WST-8); assay type: cell-based; conditions: Homo sapiens, day 3 (72-hour culture), read-out: Human leukemia cell line GI50 (μM) K562
Source text: as §2, §3, §4, §5

[5] = tested on: MLL/AF9 leukemia cell line; experiment: Leukemia cell growth inhibition evaluation (WST-8); assay type: cell-based; conditions: Mus musculus, day 3 (72-hour culture), read-out: Mouse MLL-fusion leukemia cell line GI50 (μM) MLL/AF9
Source text: as §2, §3, §4, §5

[6] = tested on: MLL/ENL leukemia cell line; experiment: Leukemia cell growth inhibition evaluation (WST-8); assay type: cell-based; conditions: Mus musculus; day 3 (72-hour culture); read-out: Mouse MLL-fusion leukemia cell line GI50 (μM) MLL/ENL
Source text: as §2, §3, §4, §5

U937 = experiment: Leukemia cell growth inhibition evaluation (WST-8); assay type: cell-based; conditions: Homo sapiens, U-937; day 3 (72-hour culture); read-out: Human leukemia cell line GI50 (μM) U937
Source text: as §2, §3, §4, §5

THP1 = experiment: Leukemia cell growth inhibition evaluation (WST-8); assay type: cell-based; conditions: Homo sapiens, THP-1; day 3 (72-hour culture); read-out: Human leukemia cell line GI50 (μM) THP1
Source text: as §2, §3, §4, §5

M7 = experiment: Leukemia cell growth inhibition evaluation (WST-8); assay type: cell-based; conditions: Homo sapiens; day 3 (72-hour culture); read-out: Human leukemia cell line GI50 (μM) M7
Source text: as §2, §3, §4, §5

[7] = tested on: bone marrow cells of normal mice; experiment: Normal cell growth inhibition evaluation (colony forming ability in methylcellulose semi-solid medium); assay type: cell-based; conditions: at 10 μM; 10 days culture; FIG. 1
Source text: In general, a semi-solid medium obtained by adding a cytokine involved in differentiation induction to a methylcellulose medium is used to evaluate a colony forming ability. Some of the bone marrow cells contain hematopoietic stem cells and precursor cells, which are sources of hematopoietic cells, and these cells can create a mass (called a colony) formed of several tens, several hundreds, and in some cases, several thousands of cells from a single cell on a semi-solid medium. The colony forming ability of the bone marrow cells may be evaluated by counting the number of the colonies. The colony forming ability in the semi-solid medium well reflects an actual supply ability and construction ability from the hematopoietic stem cells and precursor cells to the hematopoietic cells in vivo.
To 3 ml of MethoCult M3434 (methylcellulose-based semi-solid medium; StemCell Technologies; containing interleukin 3(IL-3), interleukin 6 (IL-6), erythropoietin (EPO), and stem cell factor (SCF)) were added 600,000 bone marrow cells of normal mice (suspended in 300 μl of IMDM medium), and the mixture was stirred well and plated at 1.1 ml per 3.5-cm culture dish. The cells were cultured under the conditions of 5% CO2 and 37° C. for 10 days in an incubator. A mass in which the number of cells was 50 or more was defined as a colony, and the number of colonies formed on each dish was counted.

HEL = experiment: Leukemia cell growth inhibition evaluation (WST-8); assay type: cell-based; conditions: Homo sapiens, day 3 (72-hour culture), read-out: Human leukemia cell line GI50 (μM) HEL
Source text: as §2, §3, §4, §5

MDS-L = experiment: Leukemia cell growth inhibition evaluation (WST-8); assay type: cell-based; conditions: Homo sapiens; day 3 (72-hour culture); read-out: Human leukemia cell line GI50 (μM) MDS-L
Source text: as §2, §3, §4, §5

SMILES | melting point [°C] | GI50 (SH-SY5Y cells) [µM] | GI50 (HeLa cells) [µM] | growth inhibitory / suppressing effect on the murine leukemia cell lines (in words) [1] | growth inhibitory / suppressing effect on the human leukemia cell lines (in words) [2] | IC50 [3] [µM] | IC50 [4] [µM] | GI50 (KG1a) [µM] | GI50 (HL60) [µM] | GI50 (K562) [µM] | GI50 [5] [µM] | GI50 [6] [µM] | GI50 (U937) [µM] | GI50 (THP1) [µM] | GI50 (M7) [µM] | colony forming ability [7] | GI50 (HEL) [µM] | GI50 (MDS-L) [µM]
O=C(N[C@@H](CCCCNC1CC1c1ccccc1)C(=O)NCc1cccc(C(F)(F)F)c1)c1ccc(-c2ccccc2)cc1 (stereo partly drawn) (as salt: hydrochloride) [Example 19, 2-[N-(4-Phenylbenzenecarbonyl)]amino-6-(trans-2-phenylcyclopropan-1-amino)-N-(3-trifluoromethylbenzyl)hexanamide Hydrochloride] | 129 to 130 |  |  |  |  |  |  |  |  |  |  |  |  |  |  |  |  | 
NC1CC1c1cccc(OCC[C@H](NC(=O)c2ccccc2)C(=O)NCc2ccccc2)c1 (stereo partly drawn) [Comp. Ex. 2, (S)-trans-N-3-[3-(2-aminocyclopropyl)phenoxy]-1-benzylcarbamoylpropylbenzamide hydrochloride, reference compound] |  | 27 | 13 | high growth inhibitory effects | a variation in growth inhibitory effect on the human leukemia cell lines depending on the cell lines | 326 | 129 | > 50 | 6.1 to 33 | 25 to 50 | < 3.1 | < 3.1 | 25 to 50 | > 50 | > 50 |  |  | 
O=C(N[C@@H](CCCCNC1CC1c1ccccc1)C(=O)NCc1ccc(Cl)cc1)c1ccc(-c2ccccc2)cc1 (stereo partly drawn) [Example 20, 2-[N-(4-Phenylbenzenecarbonyl)]amino-6-(trans-2-phenylcyclopropan-1-amino)-N-(4-chlorobenzyl)hexanamide Hydrochloride] |  | 1.4 | 4 |  |  | > 100 | > 100 |  |  |  |  |  |  |  |  |  |  | 
O=C(N[C@@H](CCCCNC1CC1c1ccccc1)C(=O)NCc1cccc(Cl)c1)c1ccc(-c2ccccc2)cc1 (stereo partly drawn) [Example 21, 2-[N-(4-Phenylbenzenecarbonyl)]amino-6-(trans-2-phenylcyclopropan-1-amino)-N-(3-chlorobenzyl)hexanamide Hydrochloride] |  | 2.7 | 4.3 | very high growth suppressing effects | higher growth suppressing effects on the human leukemia cell lines than Comparative Example 2 | > 100 | > 100 | 10 to 20 | 5 to 10 |  |  |  | 10 to 20 | 10 to 20 |  | not inhibited | < 1.3 | < 1.3
